Results reported in patent publication US20110238319A1, “METHOD OF DIAGNOSING A RESPIRATORY DISEASE” (priority 2008, published 2011).

What was measured:
guinea pigs [1] = assay: Lung lavage total and differential cell counts; type: in vivo, guinea pig
Experimental: (§1) Animals were sacrificed with an overdose of urethane (3 gm/kg i.v.). Cytosmear for total and differential cell counts (Diff-Quik®, Baxter Healthcare Corp) were performed on lung lavage ^17. The lungs were removed, inflated and fixed in 3.7% formaldehyde for 24 hours. Airway sections were stained with 2% chromotrope 2R to determine the average number of eosinophils per 10 high power field (#/hpf) as previously described^20.
(§2) A P-value of 0.05 was considered significant.

guinea pigs [2] = assay: Eosinophil count in cartilaginous airways (histology); type: in vivo, guinea pig; settings: challengeddex vs challenged
Experimental: as §1, §2

[3] = Urine metabolite concentrations by 1H-NMR (Chenomx, PLS-DA); type: in vivo, guinea pig; settings: for urine Fumarate concentration / urine Glycolate concentration / urine Trimethylamine concentration: mean (STD) per title
Experimental: Regarding animal urine data: under anaesthesia, but before performing airway inflammatory measurements, urine samples (1.0-2.0 cc) were collected by trans-abdominal cystocentesis. Regarding human urine data: midstream urine samples were collected in standard 50 ml specimen containers and promptly placed in a freezer at the outpatient clinic (−20° C.).
Within 3 hours each the urine sample was moved to the −80° C. freezer at NANUC (National High Field NMR Centre), University of Alberta. To determine the NMR spectra, the samples were thawed in a biosafety fume hood and a […] aliquot was removed and placed in a 1.5 ml Eppendorff tube followed by the addition of […] of a reference buffer solution (4.9 mM DSS (disodium-2, 2-dimethyl 2-silapentane-5-sulphonate) and 100 mM imidazole in D2O, Sigma-Aldrich). Each sample was brought to a pH of 7.0 +/-0.1 using HCl and NaOH. An uncentrifuged aliquot of 600 μl was taken and transferred to a standard 5 mm glass NMR tube (Wilmad, N.J.). ^1H-NMR spectra were acquired on a 600 MHz Inova spectrometer (Varian Inc, Palo Alto, Calif.) equipped with a 5 mm triple-resonance (HCN) probe with z-axis gradient coil. One-dimensional ^1H-NMR spectra were collected at 25° C. with a tnnoesy pulse sequence (one-dimensional, three pulse NOESY, with a transmitter pre-saturation delay of 900 ms for water suppression during the pre-acquisition delay and 100 ms mixing time) and a spectral width of 7200 Hz. The time-domain data points were 64k complex points, acquisition time was 4s, 90° pulse was 6.8 μs, repetition time was 5 s, with four steady state scans, and 32 acquired scans per FID (Free Induction Decay). The data were apodized with an exponential window function corresponding to a line broadening of 0.5 Hz, zero-filled to 128 k complex points, and Fourier transformed^22.
Quantification of 50-70 easily identifiable metabolites involved in various relevant metabolic pathways was performed using Chenomx NMR Suite Professional software package Version 3.1 (Chenomx Inc., Edmonton, AB)^23. The software contains a database of known metabolites with their referenced spectral resonant frequencies or signatures. The software allows matching of these known resonant frequencies with the observed resonant frequencies of the collected spectra, enabling the qualitative and quantitative analysis of metabolites in urine NMR spectra (FIG. 1A). The methyl groups from DSS produce a resonant singlet, which served as internal standard for spectral chemical shifts (set to 0 ppm) and for quantification. The internal DSS signal was also utilized as the concentration reference (0.49 mM). To correct for dilution, metabolite concentrations were referenced against urinary creatinine^24. This method is capable of providing metabolite concentration accuracies in excess of 90%^23, 25.
To separate groups of animals or patients based on urine metabolite concentrations, the values of the 50-70 metabolite concentrations for each animal/child were log transformed and imported to SIMCA software (SIMCA-P 11, Umetrics, USA). […] To appreciate the impact of a lower concentration metabolite in the model, equal to the change in an abundant metabolite, the methods must detect the relative change in concentration. Thus, metabolite concentrations were mean-centered followed by unit variance scaling (or z-scoring). Thereafter, partial least squares discriminant analysis (PLS-DA) was performed (SIMCA-P 11). PLS-DA determines the relationship between the response vector Y (i.e. subject group) and the matrix X (concentration of each metabolite) by simultaneous projections of both Y and X spaces to a plane. Then seven fold internal crossvalidation was performed by dividing the data into seven parts (by default) and each 1/7th in turn was removed.

guinea pigs [4] = system: guinea pigs
Experimental: Female Dunkin-Hartley guinea pigs (GP) were used (specific pathogen-free, 180-450 g, Charles River Laboratories, Saint-Constant, Canada) in accordance with standards established by the University of Alberta Health Sciences Animal Policy and Welfare Committee and Guidelines of the Canadian Council on Animal Care. All guinea pigs were allowed to adapt to the new environment for at least one week before physiologic studies. […] Airway function and inflammation were assessed four days after OVA challenge or 21 days after sensitization alone.
Guinea Pigs were anesthetized with urethane (1.5 g/kg i.p.), tracheostomized, and ventilated after paralysis with succinylcholine chloride (Sigma-Aldrich) (10 μg/kg/min, i.v.). Pulmonary inflation pressure (Ppi) was measured using (Powerlab, Adlnstruments, Colorado Springs, USA) as previously described^17. […] The resulting bronchoconstriction was recorded as increases in Ppi.
The results are expressed as mean and standard error of the mean (SEM) and standard deviation (SD) respectively. A P-value of 0.05 was considered significant.

With `C[C@@H]1C[C@H]2[C@@H]3CCC4=CC(=O)C=C[C@]4(C)[C@@]3(F)[C@@H](O)C[C@]2(C)[C@@]1(O)C(=O)CO` [Dex, dexamethasone] the “total cells in lung lavage” value (guinea pigs [1]; challengeddex vs challenged) was “remained higher similar to challenge”, the “lymphocytes in lung lavage” value (guinea pigs [1]; challengeddex vs challenged, p<0.05) was “significantly lower” and the “total cell counts in lung lavage” value (guinea pigs [1]; controldex vs control and sensitized, dexamethasone 6.5 μg/kg i.p. daily for three days) was “no significant difference”. The “macrophage values in lung lavage” value (guinea pigs [1]; controldex vs control, p=0.03) was “higher compared with control”, the “eosinophils in cartilaginous airways” value (guinea pigs [2]) was “remained similar to challenged” and the “urine 1-Methyl-Histamine concentration” value ([3]; Challenged/Dex group (n = 12)) was 0.044(0.002-0.055) mmol/mmol creatinine. For the same compound, the “urine 2-OH-Isobutyrate concentration” value ([3]; Challenged/Dex group (n = 12)) was 0.043(0.031-0.061) mmol/mmol creatinine, the “urine 2-Oxoglutarate concentration” value ([3]; Challenged/Dex group (n = 12)) was 0.006(0.005-0.012) mmol/mmol creatinine and the “urine 3-Methyl-Adipate concentration” value ([3]; Challenged/Dex group (n = 12)) was 0.011(0.009-0.017) mmol/mmol creatinine. For the same compound, the “urine 3-OH-3-Methyl-Glutarate concentration” value ([3]; Challenged/Dex group (n = 12)) was 0.010(0.006-0.014) mmol/mmol creatinine, the “urine 3-OH-Butyrate concentration” value ([3]; Challenged/Dex group (n = 12)) was 0.018(0.013-0.029) mmol/mmol creatinine and the “urine 4-Aminohippurate concentration” value ([3]; Challenged/Dex group (n = 12)) was 0.010(0.005-0.010) mmol/mmol creatinine. The “urine 4-OH-Phenylacetate concentration” value ([3]; Challenged/Dex group (n = 12)) was 0.122(0.068-0.196) mmol/mmol creatinine, the “urine 4-Pyridoxate concentration” value ([3]; Challenged/Dex group (n = 12)) was 0.009(0.005-0.010) mmol/mmol creatinine and the “urine Acetate concentration” value ([3]; Challenged/Dex group (n = 12)) was 0.118(0.081-0.203) mmol/mmol creatinine. The “urine Acetoacetate concentration” value ([3]; Challenged/Dex group (n = 12)) was 0.007(0.005-0.010) mmol/mmol creatinine, the “urine Acetone concentration” value ([3]; Challenged/Dex group (n = 12)) was 0.005(0.003-0.009) mmol/mmol creatinine and the “urine Adenosine concentration” value ([3]; Challenged/Dex group (n = 12)) was 0(0-0.001) mmol/mmol creatinine. The “urine Carnitine concentration” value ([3]; Challenged/Dex group (n = 12)) was 0.010(0.010-0.015) mmol/mmol creatinine, the “urine Creatine concentration” value ([3]; Challenged/Dex group (n = 12)) was 0.026(0.016-0.033) mmol/mmol creatinine and the “urine Dimethylamine concentration” value ([3]; Challenged/Dex group (n = 12)) was 0.122(0.103-0.146) mmol/mmol creatinine. For the same compound, the “urine Glucose concentration” value ([3]; Challenged/Dex group (n = 12)) was 0.155(0.100-0.334) mmol/mmol creatinine, the “urine Isobutyrate concentration” value ([3]; Challenged/Dex group (n = 12)) was 0(0-0) mmol/mmol creatinine and the “urine Kynurenate concentration” value ([3]; Challenged/Dex group (n = 12)) was 0.006(0.004-0.008) mmol/mmol creatinine. For the same compound, the “urine Malonate concentration” value ([3]; Challenged/Dex group (n = 12)) was 0.014(0.010-0.018) mmol/mmol creatinine, the “urine Methylamine concentration” value ([3]; Challenged/Dex group (n = 12)) was 0.033(0.026-0.069) mmol/mmol creatinine and the “urine Myolnositol concentration” value ([3]; Challenged/Dex group (n = 12)) was 0.035(0.020-0.080) mmol/mmol creatinine. The “urine Oxalacetate concentration” value ([3]; Challenged/Dex group (n = 12)) was 0.249(0.197-0.323) mmol/mmol creatinine, the “urine Phenylacetylglycine concentration” value ([3]; Challenged/Dex group (n = 12)) was 0.140(0.095-0.213) mmol/mmol creatinine and the “urine Phenylalanine concentration” value ([3]; Challenged/Dex group (n = 12)) was 0.022(0.016-0.042) mmol/mmol creatinine. The “urine Sarcosine concentration” value ([3]; Challenged/Dex group (n = 12)) was 0.010(0.007-0.016) mmol/mmol creatinine, the “urine Succinate concentration” value ([3]; Challenged/Dex group (n = 12)) was 0.006(0.005-0.008) mmol/mmol creatinine and the “urine Trigonelline concentration” value ([3]; Challenged/Dex group (n = 12)) was 0.069(0.063-0.091) mmol/mmol creatinine. The “urine Trimethyl-N-Oxide concentration” value ([3]; Challenged/Dex group (n = 12)) was 0.045(0.027-0.062) mmol/mmol creatinine, the “urine Tyrosine concentration” value ([3]; Challenged/Dex group (n = 12)) was 0.024(0.016-0.032) mmol/mmol creatinine and the “urine Fumarate concentration” value ([3]; Challenged/Dex group (n = 12)) was 0(0-0) mmol/mmol creatinine. For the same compound, the “urine Glycolate concentration” value ([3]; Challenged/Dex group (n = 12)) was 0(0-0) mmol/mmol creatinine, the “urine Trimethylamine concentration” value ([3]; Challenged/Dex group (n = 12)) was 0(0-0) mmol/mmol creatinine and the “urine 1-Methyl-Histamine concentration” value ([3]; Control/Dex group (n = 4)) was 0.015(0.008-0.023) mmol/mmol creatinine. For the same compound, the “urine 2-OH-Isobutyrate concentration” value ([3]; Control/Dex group (n = 4)) was 0.043(0.038-0.045) mmol/mmol creatinine, the “urine 2-Oxoglutarate concentration” value ([3]; Control/Dex group (n = 4)) was 0.004(0.003-0.005) mmol/mmol creatinine and the “urine 3-Methyl-Adipate concentration” value ([3]; Control/Dex group (n = 4)) was 0.015(0.008-0.018) mmol/mmol creatinine. The “urine 3-OH-3-Methyl-Glutarate concentration” value ([3]; Control/Dex group (n = 4)) was 0.004(0.003-0.005) mmol/mmol creatinine, the “urine 3-OH-Butyrate concentration” value ([3]; Control/Dex group (n = 4)) was 0.041(0.029-0.048) mmol/mmol creatinine and the “urine 4-Aminohippurate concentration” value ([3]; Control/Dex group (n = 4)) was 0.090(0.040-0.115) mmol/mmol creatinine. The “urine 4-OH-Phenylacetate concentration” value ([3]; Control/Dex group (n = 4)) was 0.101(0.095-0.130) mmol/mmol creatinine, the “urine 4-Pyridoxate concentration” value ([3]; Control/Dex group (n = 4)) was 0.004(0.003-0.005) mmol/mmol creatinine and the “urine Acetate concentration” value ([3]; Control/Dex group (n = 4)) was 0.137(0.098-0.180) mmol/mmol creatinine. The “urine Acetoacetate concentration” value ([3]; Control/Dex group (n = 4)) was 0.011(0.009-0.012) mmol/mmol creatinine, the “urine Acetone concentration” value ([3]; Control/Dex group (n = 4)) was 0.004(0.003-0.005) mmol/mmol creatinine and the “urine Adenosine concentration” value ([3]; Control/Dex group (n = 4)) was 0.002(0-0.003) mmol/mmol creatinine. The “urine Carnitine concentration” value ([3]; Control/Dex group (n = 4)) was 0.140(0.120-0.175) mmol/mmol creatinine, the “urine Creatine concentration” value ([3]; Control/Dex group (n = 4)) was 0.039(0.035-0.045) mmol/mmol creatinine and the “urine Dimethylamine concentration” value ([3]; Control/Dex group (n = 4)) was 0.096(0.087-0.110) mmol/mmol creatinine. The “urine Isobutyrate concentration” value ([3]; Control/Dex group (n = 4)) was 0(0-0.50) mmol/mmol creatinine, the “urine Kynurenate concentration” value ([3]; Control/Dex group (n = 4)) was 0.005(0.004-0.010) mmol/mmol creatinine and the “urine Malonate concentration” value ([3]; Control/Dex group (n = 4)) was 0.016(0.011-0.020) mmol/mmol creatinine. The “urine Methylamine concentration” value ([3]; Control/Dex group (n = 4)) was 0.009(0.009-0.014) mmol/mmol creatinine, the “urine Myolnositol concentration” value ([3]; Control/Dex group (n = 4)) was 0.410(0.380-0.570) mmol/mmol creatinine and the “urine Oxalacetate concentration” value ([3]; Control/Dex group (n = 4)) was 0.237(0.228-0.247) mmol/mmol creatinine. For the same compound, the “urine Phenylacetylglycine concentration” value ([3]; Control/Dex group (n = 4)) was 0.024(0.022-0.026) mmol/mmol creatinine, the “urine Phenylalanine concentration” value ([3]; Control/Dex group (n = 4)) was 0.011(0.009-0.013) mmol/mmol creatinine and the “urine Sarcosine concentration” value ([3]; Control/Dex group (n = 4)) was 0.004(0.003-0.005) mmol/mmol creatinine. For the same compound, the “urine Succinate concentration” value ([3]; Control/Dex group (n = 4)) was 0.013(0.011-0.014) mmol/mmol creatinine, the “urine Succinylacetone concentration” value ([3]; Control/Dex group (n = 4)) was 0.004(0.003-0.005) mmol/mmol creatinine and the “urine Trigonelline concentration” value ([3]; Control/Dex group (n = 4)) was 0.053(0.044-0.059) mmol/mmol creatinine. For the same compound, the “urine Trimethyl-N-Oxide concentration” value ([3]; Control/Dex group (n = 4)) was 0.089(0.076-0.107) mmol/mmol creatinine, the “urine Tyrosine concentration” value ([3]; Control/Dex group (n = 4)) was 0.027(0.016-0.042) mmol/mmol creatinine and the “urine Fumarate concentration” value ([3]; Control/Dex group (n = 4)) was 0(0-0) mmol/mmol creatinine. For the same compound, the “urine Glycolate concentration” value ([3]; Control/Dex group (n = 4)) was 0(0-0) mmol/mmol creatinine, the “urine Trimethylamine concentration” value ([3]; Control/Dex group (n = 4)) was 0(0-0) mmol/mmol creatinine and the urine phenylacetylglycine level ([3]; challenged animals after dexamethasone treatment) was “returned to control levels”. For the same compound, the urine sarcosine level ([3]; challenged guinea pig after steroid treatment) was “decreased”, the “urine metabolite profile by PLS-DA” value ([3]; challenged vs challengeddex, control vs controldex) was “altered urine metabolite profile” and the urine myo-inositol level ([3]; challengeddex among guinea pig groups) was “highest”. For the same compound, the “urinary excretion of 2-hydroxyisobutyrate” value ([3]; challengeddex vs challenged) was “levels rose”, the “urinary excretion of glucose” value ([3]; challengeddex vs challenged) was “levels rose” and the urine phenylacetylglycine level ([3]; dexamethasone-treated controls vs control) was “significantly lower levels”. The “bronchoconstriction response to histamine (Ppi)” value (guinea pigs [4]; challengeddex compared to challenged alone, dexamethasone 6.5 μg/kg i.p. 1 hour after challenge then daily for two days, p<0.05) was “diminished response”.
With `NCCc1c[nH]cn1` [histamine] the “bronchoconstriction measured by increasing Ppi” value (guinea pigs [4]; histamine 1-20 μg/kg i.v.) was “dose-dependent bronchoconstriction”.
